Data: patent US20250382322A1, “DIAGNOSTICS FOR DETECTING ECTO-5'-NUCLEOTIDASE (CD73)” (EBERHARD KARLS UNIVERSITÄT TÜBINGEN, priority 2022, published 2025)

Key:
human NTPDase1 = target: T1, human NTPDase1 (Homo sapiens, UniProt P49961); test: Capillary electrophoresis assay for human NTPDase1; type: biochemical; conditions: ATP (100 μM) as substrate
T1 sequence (P49961 1-510): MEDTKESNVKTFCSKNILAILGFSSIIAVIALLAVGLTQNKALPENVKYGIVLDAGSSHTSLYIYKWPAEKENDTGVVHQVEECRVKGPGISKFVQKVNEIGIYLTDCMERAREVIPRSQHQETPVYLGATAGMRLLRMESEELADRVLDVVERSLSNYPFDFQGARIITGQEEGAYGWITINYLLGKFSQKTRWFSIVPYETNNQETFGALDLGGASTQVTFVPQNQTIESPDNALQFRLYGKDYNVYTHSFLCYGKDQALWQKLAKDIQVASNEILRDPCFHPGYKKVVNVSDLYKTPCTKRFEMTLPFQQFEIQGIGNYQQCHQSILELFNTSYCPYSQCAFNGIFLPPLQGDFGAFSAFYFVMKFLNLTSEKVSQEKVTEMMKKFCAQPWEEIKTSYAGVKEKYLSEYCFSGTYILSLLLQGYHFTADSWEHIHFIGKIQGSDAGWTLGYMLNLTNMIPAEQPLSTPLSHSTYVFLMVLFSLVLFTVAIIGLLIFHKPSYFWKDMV
Description: Inhibitory activity of the CD73 inhibitors 2 and 20 at human NTPDases 1, 2, 3, and 8 was investigated using ATP (100 μM) as a substrate according to previously published procedures.^24 ATP and 2 were co-incubated with recombinantly expressed human NTPDases at 37° C. for 30 min, and the enzymatic reaction was terminated by heating at 90° C. for 10 min. The amount of enzyme preparation was adjusted to ensure 10-20% of substrate conversion. The formed products were separated by capillary electrophoresis (CE) and individually quantitated by diode array detection (DAD) at a wavelength of 260 nm. For inhibition analysis, at least three independent experiments were performed each in triplicate. The inhibition of the enzyme activity was calculated in relation to the positive control without inhibitor and plotted by GraphPad Prism 8 software (GraphPad software, San Diego, CA, USA) (for results see Table 2 and Table 3).
Test compounds were investigated at a concentration of 50 μM, and 100 μM ATP substrate according to published procedures.^24 Recombinantly expressed human NTPDases were employed. The amount of enzyme preparation was adjusted to ensure 10-20% of substrate conversion. […] The inhibition of the enzyme activity was calculated in relation to the positive control without inhibitor and plotted in GraphPad Prism 8 software (GraphPad software, San Diego, CA, USA). […]

human P2Y1 receptor = target: T2, human P2Y1 receptor (Homo sapiens, UniProt P47900); test: Calcium mobilization assay at P2Y1 receptor; type: cell-based; conditions: 1231N1 astrocytoma cells
T2 construct: expressed in transfected cells; host or cells: 1321N1 astrocytoma cells (printed '1231N1 astrocytomna cells')
T2 sequence (P47900 whole entry): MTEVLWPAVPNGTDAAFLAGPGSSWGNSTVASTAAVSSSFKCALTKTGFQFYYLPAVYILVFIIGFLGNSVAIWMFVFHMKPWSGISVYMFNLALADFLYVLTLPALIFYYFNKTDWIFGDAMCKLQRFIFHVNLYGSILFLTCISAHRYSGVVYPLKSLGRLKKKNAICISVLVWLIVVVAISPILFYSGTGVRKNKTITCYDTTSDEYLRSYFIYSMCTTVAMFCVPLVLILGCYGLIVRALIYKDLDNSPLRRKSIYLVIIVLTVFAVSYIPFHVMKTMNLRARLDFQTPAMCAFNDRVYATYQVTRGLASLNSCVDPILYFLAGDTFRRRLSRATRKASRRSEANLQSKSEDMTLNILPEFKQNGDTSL
Description: Interaction of 2 with the ADP-activated human P2Y1 receptor, which is Gq protein-coupled, was determined by calcium mobilization assays. The receptor was stably expressed in 1231N1 astrocytomna cells^25, 26 (for results see Table 2). Compound 20 was not tested at the P2Y1 receptor since the fluorescent compound would interfere with the calcium mobilization assay.

SMILES	IC50 (human NTPDase1) [µM]	IC50 (human P2Y1 receptor; 2-methylthio-ADP as agonist at EC80 (3 μM), read-out: Inhibition P2Y1 receptor IC50) [µM]	EC50 (human P2Y1 receptor; read-out: Activation P2Y1 receptor EC50) [µM]
CCCN(Cc1ccc(-c2cn(CCF)nn2)cc1)c1nc(Cl)nc2c1ncn2[C@@H]1O[C@H](COP(=O)(O)CP(=O)(O)O)C(O)C1O (stereo partly shown) [Compound 2]	> 50	> 10	> 10
O=C(NCCCCCCNC(=O)c1ccc2c(c1)C1(OC2=O)c2ccc(O)cc2Oc2cc(O)ccc21)c1ccc(CNc2nc(Cl)nc3c2ncn3[C@@H]2O[C@H](COP(=O)(O)CP(=O)(O)O)[C@@H](O)[C@H]2O)cc1 [Compound 20, (((((2R,3S,4R,5R)-5-(2-chloro-6-((4-((6-(3′,6′-dihydroxy-3-oxo-3H-spiro[isobenzofuran-1,9′-xanthene]-6-carboxamido)-hexyl)carbamoyl)benzyl)amino)-9H-purin-9-yl)-3,4-dihydroxytetrahydrofuran-2-yl)methoxy)(hydroxy)phosphoryl)methyl)phosphonic acid]	27.6		
